Test systems include SK-OV-3; OVCAR-8; SK-MEL-28; HOP-92; 786-0; SNB-19; UACC-257; SF-539; SF-268; HCT-15; OVCAR-4; K562; HCT-116; SK-MEL-5; NCI-H226.
What all share (assay): NCI anticancer screen, dose series, 48 h

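Cultured in 96-well plates, cells were exposed to test compound for 48 hours across five concentrations. GI50 marks 50% less growth.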 The source made the active and inactive calls. No stated cut-off is given here; in the data, active = GI50 up to about 1.1 µM and inactive = higher.

As for `O=C(c1ccccc1)c1nnc(C(=O)c2ccccc2)nn1`, the GI50 is 278 µM (inactive) in the experiment with SK-OV-3; > 344 µM (inactive) with OVCAR-8; > 344 µM (inactive) with SK-MEL-28; 166 µM (inactive) in the experiment on HOP-92; 179 µM (inactive) in the experiment with 786-0; > 344 µM (inactive) in the experiment with SNB-19. Moreover, the GI50 is > 344 µM (inactive) with UACC-257; > 344 µM (inactive) with SF-539; > 344 µM (inactive) in the experiment on SF-268; more than 344 µM in the experiment on HCT-15; > 344 µM (inactive) in the experiment with OVCAR-4; 119 µM (inactive) in the experiment on K562. The GI50 with HCT-116, in the experiment on SK-MEL-5 and in the experiment on NCI-H226 was > 344 µM (inactive) in each case.
On to `CCCCCCCC/C=C1\CCC(CN(C)C)C1=O` (stereo not given), for which the GI50 was 17.2 µM (inactive) in the experiment on SK-OV-3; 3.23 µM (inactive) in the experiment with OVCAR-8; 3.89 µM (inactive) in the experiment with SK-MEL-28; 3.33 µM (inactive) in the experiment with HOP-92; 1.53 µM (inactive) in the experiment on 786-0; 16.7 µM (inactive) with SNB-19. Moreover, the GI50 is 5.89 µM (inactive) in the experiment with UACC-257; 4.82 µM (inactive) in the experiment with SF-539; 7.29 µM (inactive) with SF-268; 2.77 µM in the experiment on HCT-15; 13.7 µM (inactive) with OVCAR-4; 2.51 µM (inactive) in the experiment with K562. Besides, the results for the GI50 in the experiment on HCT-116, in the experiment with SK-MEL-5 and in the experiment with NCI-H226 were 2.96 µM (inactive), 8.45 µM (inactive) and 22.3 µM (inactive), respectively.
Turning to `C#CCN(N=O)C(=O)NC(CCCNC(=O)OCc1ccccc1)C(=O)OCc1ccccc1` (stereo not given), the GI50 was > 100 µM (inactive) in the experiment on SK-OV-3; 43.4 µM (inactive) in the experiment with OVCAR-8; 24.9 µM (inactive) with SK-MEL-28; 30.9 µM (inactive) in the experiment on HOP-92; > 100 µM (inactive) in the experiment on 786-0; > 100 µM (inactive) in the experiment with SNB-19. The GI50 in the experiment with UACC-257 was 77.1 µM (inactive); with SF-539, 75.7 µM (inactive); in the experiment with SF-268, 18.2 µM (inactive); in the experiment on HCT-15, 76.4 µM; in the experiment on OVCAR-4, > 100 µM (inactive); in the experiment on K562 it was 61.9 µM (inactive). Further, the GI50 in the experiment on HCT-116, in the experiment on SK-MEL-5 and in the experiment with NCI-H226 was > 100 µM (inactive) each time.
Consider `O=C(O)c1ccccc1NS(=O)(=O)c1ccc(Cl)cc1`, for which the GI50 is > 100 µM (inactive) in the experiment on SK-OV-3; > 100 µM (inactive) in the experiment on OVCAR-8; > 100 µM (inactive) with SK-MEL-28; 19 µM (inactive) in the experiment with HOP-92; > 100 µM (inactive) in the experiment on 786-0; > 100 µM (inactive) in the experiment on SNB-19. Moreover, the GI50 with UACC-257 was > 100 µM (inactive); in the experiment with SF-539, > 100 µM (inactive); in the experiment on SF-268, > 100 µM (inactive); in the experiment on HCT-15 it was more than 100 µM; in the experiment on OVCAR-4, > 100 µM (inactive); in the experiment with K562, > 100 µM (inactive). Further, the GI50 in the experiment on HCT-116, in the experiment with SK-MEL-5 and in the experiment on NCI-H226 was > 100 µM (inactive) in each case.
As for `O=C1C2C3C=CC(C2C(=O)N1COP(=O)(O)O)C1C2C(=O)N(COP(=O)(O)O)C(=O)C2C31` (stereo not given), the GI50 was > 100 µM (inactive) in the experiment on SK-OV-3; > 100 µM (inactive) in the experiment with OVCAR-8; > 100 µM (inactive) in the experiment on SK-MEL-28; > 100 µM (inactive) with HOP-92; > 71.6 µM (inactive) in the experiment with 786-0; > 100 µM (inactive) in the experiment with SNB-19. In addition, the GI50 is > 100 µM (inactive) in the experiment on UACC-257; > 100 µM (inactive) in the experiment with SF-539; > 67.5 µM (inactive) in the experiment on SF-268; more than 41.3 µM in the experiment with HCT-15; > 100 µM (inactive) in the experiment with OVCAR-4; > 67 µM (inactive) in the experiment with K562. Further, the GI50 with HCT-116 is > 42.6 µM (inactive); in the experiment on SK-MEL-5, > 100 µM (inactive); in the experiment on NCI-H226, > 100 µM (inactive).

Values taken from ChEMBL document CHEMBL1201862, “PubChem BioAssay data set” (2004).
